Data on 2 compounds can be found in US11234984B2, “Solid dispersion” (Shizuoka Prefectural University Corporation, priority 2017, dated 2022).

SMILES strings stand for the structures. Values after ≈ are worked out from the molar mass of the structure shown. Like-named read-outs stand apart in the source and are kept apart here.

Series [1] in a line: Test Example 1. Solubility Test. The format is physicochemical. The conditions noted are these: thermodynamic from solid, shaken at 37° C. for 2 hours, mean of two measurements, read-out: Solubility of Compound A. The procedure:
5 mL of a first fluid (pH1.2) or 5 mL of a […] for an elution test in Japanese Pharmacopoeia was added to the solid dispersions of Example 1 and Comparative Examples 1 to 8, and the sample of Comparative Example 9, the solid dispersions were ground using a glass rod or a spatula, and then shaken at 37° C. for 2 hours. 400 μL of a mixed solution (acetonitrile/water=3/2) was immediately added to 600 μL of the sample solution filtered off using a 0.45 μm filter, and a concentration of the compound A in the sample solution was measured by HPLC (Shimadzu Corporation). Here, values in the table are the mean values obtained by repeating measurements twice.

The nature of series [2]: Test Example 2. Absorbability of the solid dispersion containing the compound A in rats. In kind it is in vivo. The following applies: male, Crl:CD (SD), rat, plasma, po, 30 mg/kg, single dose 30 mg/kg as compound A, mean ± SD n=3. Here is the method:
A single dose of 10 mg/kg or 30 mg/kg, as the compound A, of the solid dispersions of Example 2 and Comparative Example 10, and the sample of Comparative Example 11 suspended in a 1% carboxymethylcellulose aqueous solution was orally administered to fasted male rats (8 weeks old, Crl:CD (SD), Japan Charles River Laboratories). A crystalline form of the compound A was used as a control (Comparative Example 12). A collection time was 0.5, 1, 2, 4, 8, and 24 hours after administration, and about 300 μL of blood was collected at each time point from vena caudalis (n=3). The obtained blood was centrifuged at 1500×g, 4° C. for 15 minutes to obtain a plasma. The concentration of the compound A in the plasma was measured by HPLC (Shiseido and Hitachi High-Technologies Corporation). A time to reach the highest concentration in the plasma (Tmax), the highest concentration in the plasma (Cmax) and an area under the plasma concentration-time curve (AUC) were calculated from the change in the concentration in the obtained plasma. Here, values in the table are the mean value±standard deviation of three examples.

A word on the solubility: it is how much of the substance goes into solution per volume. For orientation: Tmax means the time from dosing to the highest level.

For `N#Cc1cc(-c2nc3c(O)ncnc3s2)ccc1Oc1ccccc1` [Comparative Example 9, 2-(3-cyano-4-phenoxyphenyl)-7-hydroxythiazolo[5,4-d]pyrimidine], the solubility at 2 h is 0.39 µg/mL (≈ 1.13 µM) in series [1] (pH 1.2, simulated gastric fluid, First fluid for dissolution test (pH1.2)) and 0.49 µg/mL (≈ 1.41 µM) in series [1] (pH 6.8, aqueous buffer, Second fluid for dissolution test (pH6.8)).

Consider `N#Cc1cc(-c2nc3c(O)ncnc3s2)ccc1Oc1ccccc1` [Comparative Example 11, 2-(3-cyano-4-phenoxyphenyl)-7-hydroxythiazolo[5,4-d]pyrimidine], for which, in series [2], the Tmax was 3.7 ± 3.8 h.
